Experimental findings from ChEMBL document CHEMBL5729119, “Aliphatic acid amide derivative” (2022) are described below.

In one experiment the target is D(2) dopamine receptor (Homo sapiens, UniProt P14416). The experiment in a line: Binding Activity Assay: Human 5-HT2A Receptor, Human 5-HT7 Receptor, and Human D2 Receptor: Binding affinity of the present compound for human 5-HT2A receptor, human 5-HT7 receptor, and human D2 receptor was measured by the following procedures.CHO cell membrane fraction in which human 5-HT2A receptor, human 5-HT7 receptor, or human D2 receptor was expressed was purchased from PerkinElmer, Inc. ….

In experiment [1] the target is 5-hydroxytryptamine receptor 7 (Homo sapiens, UniProt P34969). The experiment is described as above.
5-hydroxytryptamine receptor 7, sequence (P34969 whole entry): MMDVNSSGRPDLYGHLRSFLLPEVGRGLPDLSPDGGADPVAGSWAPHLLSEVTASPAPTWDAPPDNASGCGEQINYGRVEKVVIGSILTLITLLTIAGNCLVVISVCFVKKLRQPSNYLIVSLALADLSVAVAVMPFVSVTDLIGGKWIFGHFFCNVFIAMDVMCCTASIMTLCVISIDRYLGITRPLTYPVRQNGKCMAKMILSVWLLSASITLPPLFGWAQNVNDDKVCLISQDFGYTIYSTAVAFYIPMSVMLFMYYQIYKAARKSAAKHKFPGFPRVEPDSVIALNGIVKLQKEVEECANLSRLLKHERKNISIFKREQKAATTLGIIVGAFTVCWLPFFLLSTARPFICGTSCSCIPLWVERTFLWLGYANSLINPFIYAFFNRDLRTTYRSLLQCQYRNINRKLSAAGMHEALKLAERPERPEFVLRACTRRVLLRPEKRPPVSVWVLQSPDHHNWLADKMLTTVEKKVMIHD
Description: (§1) Each mixture was incubated at room temperature for 60 minutes. Non specific binding to receptors was obtained from a competitive binding test in the presence of 10 μmol/L 8-OH-DPAT, 10 μmol/L Mianserin, or 10 μmol/L Spiperone, respectively.

D(2) dopamine receptor, sequence (P14416 whole entry): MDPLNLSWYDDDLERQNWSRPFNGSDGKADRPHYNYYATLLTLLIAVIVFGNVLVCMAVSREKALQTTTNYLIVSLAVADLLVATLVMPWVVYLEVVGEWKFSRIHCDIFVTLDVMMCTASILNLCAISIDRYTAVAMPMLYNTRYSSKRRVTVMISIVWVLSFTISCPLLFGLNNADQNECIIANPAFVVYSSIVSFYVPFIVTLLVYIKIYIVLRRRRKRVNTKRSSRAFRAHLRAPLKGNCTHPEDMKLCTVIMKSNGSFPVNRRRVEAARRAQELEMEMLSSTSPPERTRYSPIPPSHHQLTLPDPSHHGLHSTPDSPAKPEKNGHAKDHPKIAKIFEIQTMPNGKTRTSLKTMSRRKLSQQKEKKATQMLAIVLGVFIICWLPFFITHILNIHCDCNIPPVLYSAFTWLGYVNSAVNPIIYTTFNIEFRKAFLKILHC
Description for D(2) dopamine receptor: as §1

Usually Ki stands for the dissociation constant of the complex between target and ligand, obtained from inhibition or displacement. Lower therefore signals tighter binding. Take `CCN(CCN1CCC(c2noc3cc(F)c(C)cc23)CC1)C(=O)[C@H](C)O`: the inhibition constant Ki is greater than 1000 nM at D(2) dopamine receptor and 20.3 nM in experiment [1].

As to `CCN(CCN1CCC(c2noc3cc(F)ccc23)CC1)C(=O)C1(O)CC1`, the Ki is less than 100 nM at D(2) dopamine receptor and 1.1 nM in experiment [1].

For the compound `CCN(CCN1CCC(c2noc3cc(F)ccc23)CC1)C(=O)CCO`, the inhibitory constant (Ki) on D(2) dopamine receptor was determined as 155 nM; in experiment [1], 4.9 nM.
